Measured values published in ChEMBL document CHEMBL1201862, “PubChem BioAssay data set” (2004).
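Results reflect a 48-hour exposure of cells in 96-well plates to compound at five concentrations. At the GI50, growth is halved.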 The source made the active and inactive calls. Cut-off read from the data, not from the text of the source: active = GI50 up to about 1.1 µM and inactive = higher.

How the values were obtained:
Experiment in all cases: NCI-60 cell line screen, 48 h
NCI-H23 = tested on: NCI-H23
IGROV-1 = tested on: IGROV-1
NCI-H522 = tested on: NCI-H522
SR = tested on: SR
A498 = tested on: A498
OVCAR-8 = tested on: OVCAR-8
Malme-3M = tested on: Malme-3M
SF-268 = tested on: SF-268
KM12 = tested on: KM12
OVCAR-4 = tested on: OVCAR-4
RXF 393 = tested on: RXF 393
A549 = tested on: A549
SK-OV-3 = tested on: SK-OV-3
Hs-578T = tested on: Hs-578T
HOP-92 = tested on: HOP-92
SK-MEL-28 = tested on: SK-MEL-28
TK-10 = tested on: TK-10
U-251 = tested on: U-251
MDA-MB-435 = tested on: MDA-MB-435
SW-620 = tested on: SW-620

| Structure (SMILES) | GI50 (NCI-H23) | GI50 (IGROV-1) | GI50 (NCI-H522) | GI50 (SR) | GI50 (A498) | GI50 (OVCAR-8) | GI50 (Malme-3M) | GI50 (SF-268) | GI50 (KM12) | GI50 (OVCAR-4) | GI50 (RXF 393) | GI50 (A549) | GI50 (SK-OV-3) | GI50 (Hs-578T) | GI50 (HOP-92) | GI50 (SK-MEL-28) | GI50 (TK-10) | GI50 (U-251) | GI50 (MDA-MB-435) | GI50 (SW-620) |
| --- | --- | --- | --- | --- | --- | --- | --- | --- | --- | --- | --- | --- | --- | --- | --- | --- | --- | --- | --- | --- |
| O=C(NC(Cc1c[nH]c2ccccc12)C(=O)O)/C(=C/c1ccccc1)NC(=O)c1ccccc1 (stereo not given) | > 83.2 µM (inactive) | 32.1 µM (inactive) | 25.3 µM (inactive) | > 100 µM (inactive) | > 81.8 µM (inactive) | 57.5 µM (inactive) | 22.5 µM (inactive) | > 100 µM (inactive) | 57.9 µM (inactive) | 71.1 µM (inactive) | 34.8 µM (inactive) | 38.2 µM (inactive) | 54.2 µM (inactive) | 28.5 µM (inactive) | 23.9 µM (inactive) | > 88.9 µM (inactive) | > 72.8 µM (inactive) | 46.8 µM (inactive) | 78.9 µM (inactive) | > 100 µM (inactive) |
| CCc1ccc2c(c1)/C(=C1/Nc3ccccc3C1=O)C(=O)N2 | 29.6 µM (inactive) | 0.124 µM (active) | 19.5 µM (inactive) | 14.1 µM (inactive) | 4.13 µM (inactive) | 7.46 µM (inactive) | 35.4 µM (inactive) | 19.6 µM (inactive) | 0.428 µM (active) | 7.82 µM (inactive) | 15.1 µM (inactive) | 13.8 µM (inactive) | 10.3 µM (inactive) | 11 µM (inactive) | 33.3 µM (inactive) | 96.6 µM (inactive) | 17 µM (inactive) | 13.5 µM (inactive) | 25.5 µM (inactive) | 63.2 µM (inactive) |
| Cc1cc(S(=O)(=O)Nc2nnc3c4ccccc4cnn23)c(S)cc1Cl | 63 µM (inactive) | 39.2 µM (inactive) | > 88.5 µM (inactive) | > 100 µM (inactive) | > 85.1 µM (inactive) | > 100 µM (inactive) | > 100 µM (inactive) | 39.9 µM (inactive) | 31.7 µM (inactive) | > 100 µM (inactive) | > 100 µM (inactive) | 70.5 µM (inactive) | 34.7 µM (inactive) | 40.1 µM (inactive) | > 49.9 µM (inactive) | > 100 µM (inactive) | > 100 µM (inactive) | 29.9 µM (inactive) | > 84.3 µM (inactive) | > 100 µM (inactive) |
| Cc1c(C)c(S(=O)(=O)N(CCCCCCN)OCCCN)c(C)c2c1OC(C)(C)CC2 | 8.83 µM (inactive) | 2 µM (inactive) | 4.7 µM (inactive) | 5.92 µM (inactive) | 16.1 µM (inactive) | 8.17 µM (inactive) | 2.15 µM (inactive) | 6.93 µM (inactive) | 1.91 µM (inactive) | 2.49 µM (inactive) | 4.13 µM (inactive) | 4.94 µM (inactive) | 10.1 µM (inactive) | 3.72 µM (inactive) | 4.16 µM (inactive) | 17.6 µM (inactive) | 14.3 µM (inactive) | 4.46 µM (inactive) | 5.37 µM (inactive) | 7.45 µM (inactive) |
| COc1ccc(OC)c(NC(=O)C(=O)Nn2c(S)nc3ccccc3c2=O)c1 | > 100 µM (inactive) | 88.1 µM (inactive) | > 100 µM (inactive) | > 100 µM (inactive) | > 100 µM (inactive) | > 100 µM (inactive) | > 100 µM (inactive) | > 100 µM (inactive) | > 100 µM (inactive) | > 100 µM (inactive) | > 100 µM (inactive) | > 100 µM (inactive) | > 100 µM (inactive) | > 100 µM (inactive) | > 100 µM (inactive) | > 100 µM (inactive) | > 100 µM (inactive) | > 100 µM (inactive) | > 100 µM (inactive) | > 100 µM (inactive) |
| C[C@H](CCC(=O)NCCS(=O)(=O)O)[C@H]1CC[C@H]2[C@@H]3CC[C@@H]4C[C@H](O)CC[C@]4(C)[C@H]3CC[C@]12C | > 100 µM (inactive) | > 100 µM (inactive) | > 100 µM (inactive) | 28.7 µM (inactive) | > 100 µM (inactive) | > 100 µM (inactive) | > 100 µM (inactive) | > 100 µM (inactive) | > 100 µM (inactive) | > 100 µM (inactive) | > 100 µM (inactive) | > 100 µM (inactive) | > 100 µM (inactive) | > 100 µM (inactive) | > 100 µM (inactive) | > 100 µM (inactive) | > 100 µM (inactive) | > 100 µM (inactive) | > 100 µM (inactive) | > 100 µM (inactive) |
| CN(CCNCc1cn(C)c2c1ccc1ccccc12)CCNCc1cn(C)c2c1ccc1ccccc12 | 1.64 µM (inactive) | 1.6 µM (inactive) | 1.77 µM (inactive) | 1.04 µM (active) | 0.188 µM (active) | 1.85 µM (inactive) | 1.87 µM (inactive) | 1.58 µM (inactive) | 1.51 µM (inactive) | 1.33 µM (inactive) | 0.499 µM (active) | 1.45 µM (inactive) | 1.76 µM (inactive) | 1.64 µM (inactive) | 1.6 µM (inactive) | 1.43 µM (inactive) | 1.64 µM (inactive) | 0.9 µM (active) | 1.78 µM (inactive) | 1.35 µM (inactive) |
| O=C(NC/C(Cl)=C/Cl)Nc1c2ccccc2nc2ccccc12 | > 100 µM (inactive) | 35.5 µM (inactive) | > 100 µM (inactive) | 20.5 µM (inactive) | 67.1 µM (inactive) | 56.4 µM (inactive) | > 100 µM (inactive) | > 100 µM (inactive) | > 100 µM (inactive) | 35.4 µM (inactive) | > 100 µM (inactive) | > 100 µM (inactive) | > 100 µM (inactive) | > 100 µM (inactive) | 41.6 µM (inactive) | > 100 µM (inactive) | > 100 µM (inactive) | 70.8 µM (inactive) | > 100 µM (inactive) | > 100 µM (inactive) |
| CO[C@H]1C[C@](C)(O)Cc2cc3c(c(O)c21)C(=O)c1c(O)cc2c(c1C3=O)O[C@@H]1O[C@@]2(C)[C@H](O)[C@@H](N(C)C)[C@@H]1O | 0.804 µM (active) | 2.32 µM (inactive) | 1.04 µM (active) | 0.0282 µM (active) | 0.968 µM (active) | 0.9 µM (active) | 1.09 µM (active) | 1.22 µM (inactive) | 1.76 µM (inactive) | 4.11 µM (inactive) | 1.17 µM (inactive) | 0.0908 µM (active) | 0.641 µM (active) | 5.25 µM (inactive) | 0.362 µM (active) | 5.82 µM (inactive) | 6.98 µM (inactive) | 0.368 µM (active) | 1.73 µM (inactive) | 0.55 µM (active) |
| CC1=NN(C(=O)c2ccncc2)C(=O)C1/N=N/c1ccc2ccccc2c1 (stereo not given) | > 64.3 µM (inactive) | 22.9 µM (inactive) | > 100 µM (inactive) | 5.3 µM (inactive) | > 100 µM (inactive) | > 100 µM (inactive) | > 72.6 µM (inactive) | 69 µM (inactive) | 17.1 µM (inactive) | > 100 µM (inactive) | > 100 µM (inactive) | 28.1 µM (inactive) | > 100 µM (inactive) | 5.2 µM (inactive) | > 100 µM (inactive) | > 100 µM (inactive) | 60.3 µM (inactive) | > 91 µM (inactive) | 3.4 µM (inactive) | 38.7 µM (inactive) |
| CC(=O)O[C@H]1C[C@]2(O)[C@@H]3CC[C@@H]4C[C@@H](O)CC[C@]4(C)[C@H]3CC[C@]2(C)[C@H]1C1=CC(=O)OC1 | 0.0366 µM (active) | 0.103 µM (active) | 0.0251 µM (active) | 0.0315 µM (active) | 0.0977 µM (active) | 0.0923 µM (active) | 0.036 µM (active) | 0.0429 µM (active) | 0.398 µM (active) | 0.0362 µM (active) | 0.0324 µM (active) | < 0.0144 µM (active) | 0.214 µM (active) | 0.0675 µM (active) | 0.192 µM (active) | 0.324 µM (active) | 0.0796 µM (active) | 0.128 µM (active) | 0.179 µM (active) | 0.125 µM (active) |
